19 compounds from US20190375708A1 (VenatoRx Pharmaceuticals, Inc., priority 2018, published 2019) can be followed below.

Molecules are shown by their SMILES.

Data set [1] relates to HBV replication in HepAD38 cells. The data set can be described thus: Anti-HBV replication assay in HepAD38 cells (QPCR of extracellular HBV DNA). As to conditions: Hepatitis B virus, 168 h, 7 days incubation, extracellular HBV DNA by QPCR, read-out: Anti-HBV EC50. Type of data set: cell-based, HBV (genotype D, serotype ayw). In short, it runs like this: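 Steps: seed HepAD38 overnight without tetracycline; refresh medium and add 1 log10 serial dilutions ([…]); incubate 7 days at 37 °C; quantify supernatant HBV DNA by QPCR; derive EC50 from a 4-parameter dose-response fit.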

Data set [2] in a line: In vitro cytotoxicity assay (MTT cell viability) in HepG2 cells. Type of data set: cell-based, human. The note with it: human. In outline:
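CC50 values reflect loss of HepG2 viability after a 7-day exposure at 37 °C, 5% CO2. After 3-4 h with MTT, solubilized formazan was quantified at 492 nm relative to vehicle wells.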

As usually defined, the EC50 is the concentration at which the effect is half-maximal. As a reminder, the CC50 is the concentration at which the toxic effect on the cells reaches its halfway point. A high value points to lower toxicity to the cells. As to `Cc1c(C(=O)Nc2ccc(F)c(F)c2)c(C)n(C)c1C(=O)C(=O)Nc1ccccn1` [Example 294, N-(3,4-difluorophenyl)-1,2,4-trimethyl-5-(2-oxo-2-(pyridin-2-ylamino)acetyl)-1H-pyrrole-3-carboxamide], the EC50 in data set [1] lay within 500 to 1000 nM. In data set [2], the CC50 at 7 days is more than 30000 nM.
On the same counts, the results for `Cc1cc(NC(=O)c2c(C)c(C(=O)C(=O)N[C@H]3CNC(=O)C3(C)C)n(C)c2C)ccc1F` [Example 621, (R)-5-(2-((4,4-dimethyl-5-oxopyrrolidin-3-yl)amino)-2-oxoacetyl)-N-(4-fluoro-3-methylphenyl)-1,2,4-trimethyl-1H-pyrrole-3-carboxamide] are less than 50 nM and more than 30000 nM.
Take `CC(C)(CO)CNC(=O)C(=O)c1c(Cl)c(C(=O)Nc2ccc(F)c(F)c2)c2n1CCC2` [Example 559, 6-chloro-N-(3,4-difluorophenyl)-5-(2-((3-hydroxy-2,2-dimethylpropyl)amino)-2-oxoacetyl)-2,3-dihydro-1H-pyrrolizine-7-carboxamide]: the EC50 in data set [1] fell in the range of 50 to 499 nM. The compound further displayed a CC50 at 7 days in data set [2] of more than 30000 nM.
Turning to `Cc1cc(NC(=O)c2c(C)c(C(=O)C(=O)NC(C)(C)C(F)(F)F)n3c2CCCC3)cnc1F` [Example 468, N-(6-fluoro-5-methylpyridin-3-yl)-2-methyl-3-(2-oxo-2-((1,1,1-trifluoro-2-methylpropan-2-yl)amino)acetyl)-5,6,7,8-tetrahydroindolizine-1-carboxamide], in data set [1], the half-maximal effective concentration (EC50) fell in the range of 50 to 499 nM. The cytotoxic concentration (CC50) at 7 days in data set [2] was more than 30000 nM.
On the same counts, the results for `Cc1cc(NC(=O)c2c(C)c(C(=O)C(=O)N[C@H]3CC[C@@H](O)CC3)n(C)c2C)ccc1F` [Example 137, N-(4-fluoro-3-methylphenyl)-5-(2-(((1s,4s)-4-hydroxycyclohexyl)amino)-2-oxoacetyl)-1,2,4-trimethyl-1H-pyrrole-3-carboxamide] are less than 50 nM and more than 30000 nM.
On the same counts, the results for `Cc1noc([C@H](C)NC(=O)C(=O)c2c(Cl)c(C(=O)Nc3ccc(F)c(Cl)c3)c3n2CCCC3)n1` [Example 523, (S)-2-chloro-N-(3-chloro-4-fluorophenyl)-3-(2-((1-(3-methyl-1,2,4-oxadiazol-5-yl)ethyl)amino)-2-oxoacetyl)-5,6,7,8-tetrahydroindolizine-1-carboxamide] are 50 to 499 nM and 5000 to 30000 nM.
On the same counts, the results for `Cc1cc(NC(=O)c2c(C)c(C(=O)C(=O)NC3(C)C(=O)NCC34CC4)n(C)c2C)ccc1F` (centres unmarked) [Example 680, N-(4-fluoro-3-methylphenyl)-1,2,4-trimethyl-5-(2-((7-methyl-6-oxo-5-azaspiro[2.4]heptan-7-yl)amino)-2-oxoacetyl)-1H-pyrrole-3-carboxamide] are less than 50 nM and more than 30000 nM.
Consider `CC(=O)N1CC[C@@H](NC(=O)C(=O)c2c(C)c(C(=O)Nc3ccc(F)c(C)c3)c(C)n2C)C1` [Example 664, (R)-5-(2-((1-acetylpyrrolidin-3-yl)amino)-2-oxoacetyl)-N-(4-fluoro-3-methylphenyl)-1,2,4-trimethyl-1H-pyrrole-3-carboxamide], for which the concentration for a half-maximal effect (EC50) in data set [1] was less than 50 nM. Also, the CC50 at 7 days in data set [2] was more than 30000 nM.
On the same counts, the results for `Cc1cc(NC(=O)c2c(C)c(C(=O)C(=O)N[C@@H](C(N)=O)C(C)(C)C)n(C)c2C)ccc1F` [Example 40, (R)-5-(2-((1-amino-3,3-dimethyl-1-oxobutan-2-yl)amino)-2-oxoacetyl)-N-(4-fluoro-3-methylphenyl)-1,2,4-trimethyl-1H-pyrrole-3-carboxamide] are 500 to 1000 nM and 500 to 4990 nM.
On the same counts, the results for `Cc1cc(NC(=O)c2c(C)c(C(=O)C(=O)NC3(c4nnn[nH]4)CCCC3)n(C)c2C)ccc1F` [Example 636, 5-(2-((1-(1H-tetrazol-5-yl)cyclopentyl)amino)-2-oxoacetyl)-N-(4-fluoro-3-methylphenyl)-1,2,4-trimethyl-1H-pyrrole-3-carboxamide] are less than 50 nM and more than 30000 nM.
The like results for `Cc1cc(NC(=O)c2c(C)c(C(=O)C(=O)NC3CCN(c4ncccn4)CC3)n(C)c2C)ccc1F` [Example 658] were, in that order, less than 50 nM and 5000 to 30000 nM.
Consider `Cc1cc(NC(=O)c2c(C)c(C(=O)C(=O)N[C@H]3C[C@@H](NS(C)(=O)=O)C3)n(C)c2C)ccc1F` [Example 669, N-(4-fluoro-3-methylphenyl)-1,2,4-trimethyl-5-(2-(((1s,3s)-3-(methylsulfonamido)cyclobutyl)amino)-2-oxoacetyl)-1H-pyrrole-3-carboxamide], for which the EC50 in data set [1] is less than 50 nM. Besides, the CC50 at 7 days in data set [2] is more than 30000 nM.
The like results for `Cc1c(C(=O)Nc2ccc(F)c(F)c2)c2n(c1C(=O)C(=O)NCc1cnc(N)s1)CCCC2` [Example 455, 3-(2-(((2-aminothiazol-5-yl)methyl)amino)-2-oxoacetyl)-N-(3,4-difluorophenyl)-2-methyl-5,6,7,8-tetrahydroindolizine-1-carboxamide] were, in that order, less than 50 nM and 5000 to 30000 nM.
The like results for `CC(C)(CO)NC(=O)C(=O)c1c(Cl)c(C(=O)Nc2ccnc(F)c2)c2n1CCCC2` [Example 512, 2-chloro-N-(2-fluoropyridin-4-yl)-3-(2-((1-hydroxy-2-methylpropan-2-yl)amino)-2-oxoacetyl)-5,6,7,8-tetrahydroindolizine-1-carboxamide] were, in that order, 500 to 1000 nM and more than 30000 nM.
The like results for `Cc1cc(NC(=O)c2c(C)c(C(=O)C(=O)Nc3ccc(F)c(F)c3)n(C)c2C)ccc1F` [Example 231, 5-(2-((3,4-difluorophenyl)amino)-2-oxoacetyl)-N-(4-fluoro-3-methylphenyl)-1,2,4-trimethyl-1H-pyrrole-3-carboxamide] were, in that order, less than 50 nM and 5000 to 30000 nM.
Take `Cc1cc(NC(=O)c2c(C)c(C(=O)C(=O)Nc3ccc(N4CCOCC4)nc3)n(C)c2C)ccc1F` [Example 266, N-(4-fluoro-3-methylphenyl)-1,2,4-trimethyl-5-(2-((6-morpholinopyridin-3-yl)amino)-2-oxoacetyl)-1H-pyrrol-3-carboxamide]: the EC50 in data set [1] was in the range of 50 to 499 nM. For the same compound, in data set [2], the CC50 at 7 days was more than 30000 nM.
The like results for `Cc1cc(NC(=O)c2c(C)c(C(=O)C(=O)N[C@H]3CC[C@@](O)(C(F)(F)F)CC3)n(C)c2C)cnc1F` [Example 205, N-(6-fluoro-5-methylpyridin-3-yl)-5-(2-(((1r,4r)-4-hydroxy-4-(trifluoromethyl)cyclohexyl)amino)-2-oxoacetyl)-1,2,4-trimethyl-1H-pyrrole-3-carboxamide] were, in that order, less than 50 nM and more than 30000 nM.
The like results for `Cc1cc(NC(=O)c2c(C)c(C(=O)C(=O)N[C@@H](CO)C(C)(C)C)n(C)c2C)ccc1F` [Example 78, (R)—N-(4-fluoro-3-methylphenyl)-5-(2-((1-hydroxy-3,3-dimethylbutan-2-yl)amino)-2-oxoacetyl)-1,2,4-trimethyl-1H-pyrrole-3-carboxamide] were, in that order, less than 50 nM and more than 30000 nM.
The like results for `Cc1cc(NC(=O)c2c(C)c(C(=O)C(=O)N[C@H]3C4CC5CC3C[C@](O)(C5)C4)n(CCF)c2C)ccc1F` [Example 118, N-(4-fluoro-3-methylphenyl)-1-(2-fluoroethyl)-5-(2-(((1R,2s,3S,5s,7s)-5-hydroxyadamantan-2-yl)amino)-2-oxoacetyl)-2,4-dimethyl-1H-pyrrole-3-carboxamide] were, in that order, less than 50 nM and more than 30000 nM.
